Experimental data reported in patent US9371330B2, “Substituted pyrazino[1,2-a]pyrimidines useful as CBP/catenin antagonists for enhancing asymmetric division of somatic stem cells” (University of Southern California, priority 2011, dated 2016).
Read-outs that look alike come from different tables or passages of the source.

Experiments:
CBP = CBP (Homo sapiens, UniProt Q92793); assay: binding to coactivator CBP (affinity chromatography; binding and isothermal calorimetry)
From the text: ICG-001. Applicant's pharmacologic tools were identified using cell-based forward chemical genomic screens of small molecule secondary structure template chemical libraries (22).
(§1) Applicant next mapped the binding domains between CBP and beta-catenin, as well as between p300 and beta-catenin. The C-terminal trans-activating region of beta-catenin (647-781) interacted with the same 1-111 amino acids of both CBP and p300 (23). However, only the interaction between CBP and beta-catenin was disrupted by ICG-001, and not the p300/beta-catenin interaction.

[1] = biological target: p300/beta-catenin interaction (Homo sapiens, UniProt Q09472); assay: disruption of p300/beta-catenin interaction; type: binding
From the text: as §1

[2] = topical treatment of pregnant mice throughout pregnancy, offspring outcome; type: in vivo, mouse; conditions: mothers treated topically 0.5M
From the text: Acute Promyelocytic Leukemia (APL) is unique among myeloid leukemias due to its sensitivity to all-trans retinoic acid (ATRA), a derivative of vitamin A. Treatment with ATRA dissociates the NCOR-HDACL complex from RAR and allows DNA transcription and differentiation of the immature leukemic promyelocytes into mature granulocytes by targeting the oncogenic transcription factor and its aberrant action. […] A large number of scientific studies have also investigated a possible role for vitamin D in cancer prevention, including colon, prostate, breast, pancreatic and skin cancer. […] However, there are also reports of synergistic effects on the activation of gene expression by ATRA and Wnt for example (47). […] This is the same region of these coactivator proteins (i.e., CBP and p300) that partners with catenin (both beta and gamma) and the CBP/catenin antagonists (e.g., ICG-001) also bind to this region. These nuclear receptor ligands have many of the same differentiating effects on stem cell populations that applicant has observed with specific CBP/catenin antagonists. Although, both Vitamin A and D are required during development and have many beneficial health effects in adulthood, both are teratogenic at high levels. […]

colorectal cancer cells = assay: colorectal cancer cells: survivin and cytotoxicity; type: cell-based
From the text: (§2) Cancer. The importance of Wnt signaling in colorectal cancer is undisputed. Applicant's investigation on the therapeutic utility of ICG-001 therefore quite naturally began with colon cancer.

SW620 xenograft = assay: nude mouse SW620 xenograft model of colon cancer; conditions: in vivo
From the text: as §2

MDA-MB-231 cells = assay: MDA-MB-231 stem/tumor initiating cell markers; type: cell-based
From the text: This phenotype CD44^hi, CD24^lo has been associated with a subpopulation of cells that behave like a breast cancer stem/tumor initiating cell population (51). […] Beyond reduction of survivin message level, there is a gene expression profile consistent with the occurrence of a mesenchymal to epithelial (MET) transition (i.e. decreased expression of twist, vimentin and S100A4 and an increase in E-cadherin expression). Recently, there have been a number of papers, which have correlated epithelial to mesenchymal transition (EMT) with a CSC phenotype (52). EMT is a normal physiologic process that is important in development and in adults, for example in wound healing, but pathophysiologically is associated with tumor metastasis and organ fibrosis (see later discussion on fibrosis). Specific CBP/catenin antagonists can reverse this aberrant EMT in vivo (EMT also plays a critical role in the skin in hair loss etc. J Dermatol Sci. 2011 January; 61(1):7-13. Epub 2010 Dec. 5; epithelial-mesenchymal transition (EMT) plays important roles not only in the morphogenesis but also in wound repair, tissue fibrosis and cancer progression. Recently, regulatory mechanism of this process has been elaborately elucidated. EMT can be a new therapeutic target for treating skin ulcer, fibrosing alopecia, and malignant cutaneous cancers, including squamous cell carcinoma and melanoma).

[3] = tested on: drug resistant leukemia stem cells; assay: NOD/SCID/IL2rγ-/- mouse model of engrafted human CML; type: in vivo
From the text: Chronic myelogenous leukemia (CML). Despite the stunning clinical success achieved to date in chronic phase CML patients treated with the BCR-ABL antagonist Gleevec/Imatinib (IM), responses in advanced phase patients are often short-lived, and patients invariably undergo disease progression. Furthermore, resistance to IM develops in 2% to 4% of patients annually and IM dose escalation is generally not sufficient to control the disease. Several mechanisms that contribute to tyrosine kinase inhibitor (TKI) resistance have been proposed including the insensitivity of quiescent CML stem cells to TKIs due to low expression of BCR-ABL and the emergence of drug resistant leukemic clones associated with increased nuclear catenin levels, a hallmark of increased Wnt/catenin transcription. […] Epigenetic silencing of negative regulators of the Wnt signaling cascade is also frequently associated with leukemias, including CML. […] The mice treated with one course (28 days from day 13-41 after leukemia engraftment) of CBP/catenin antagonist plus bcr-abl antagonist are essentially cured of leukemia and live as long (approximately 2 years) as their littermates that were never engrafted with leukemia.

[4] = tested on: rat type II lung epithelial cells; assay: TGF-β1-induced EMT genes in rat type II lung epithelial cells; type: cell-based
From the text: Fibrosis. Idiopathic pulmonary fibrosis (IPF)/usual interstitial pneumonia (UIP), the most common of the idiopathic interstitial pneumonias, is a devastating, progressive disorder characterized by excessive fibroblast proliferation and extracellular matrix remodeling leading to lung destruction. There is currently no effective therapy for this uniformly fatal disease. An emerging paradigm proposes a central role for alveolar epithelial cell injury and dysregulated repair in the pathogenesis of IPF. Injury to the epithelium is thought to initiate a cascade of fibroblast activation and matrix deposition, which in predisposed hosts fails to resolve as it would in the course of normal wound repair. Epithelial cells undergo excessive apoptosis, whereas fibroblasts are less amenable to apoptosis and manifest increased survival. The well-characterized model of bleomycin-induced lung injury has been extensively used to investigate potential pathways involved in the pathogenesis of pulmonary fibrosis and to explore therapeutic approaches.

CBP, sequence (Q92793 whole entry): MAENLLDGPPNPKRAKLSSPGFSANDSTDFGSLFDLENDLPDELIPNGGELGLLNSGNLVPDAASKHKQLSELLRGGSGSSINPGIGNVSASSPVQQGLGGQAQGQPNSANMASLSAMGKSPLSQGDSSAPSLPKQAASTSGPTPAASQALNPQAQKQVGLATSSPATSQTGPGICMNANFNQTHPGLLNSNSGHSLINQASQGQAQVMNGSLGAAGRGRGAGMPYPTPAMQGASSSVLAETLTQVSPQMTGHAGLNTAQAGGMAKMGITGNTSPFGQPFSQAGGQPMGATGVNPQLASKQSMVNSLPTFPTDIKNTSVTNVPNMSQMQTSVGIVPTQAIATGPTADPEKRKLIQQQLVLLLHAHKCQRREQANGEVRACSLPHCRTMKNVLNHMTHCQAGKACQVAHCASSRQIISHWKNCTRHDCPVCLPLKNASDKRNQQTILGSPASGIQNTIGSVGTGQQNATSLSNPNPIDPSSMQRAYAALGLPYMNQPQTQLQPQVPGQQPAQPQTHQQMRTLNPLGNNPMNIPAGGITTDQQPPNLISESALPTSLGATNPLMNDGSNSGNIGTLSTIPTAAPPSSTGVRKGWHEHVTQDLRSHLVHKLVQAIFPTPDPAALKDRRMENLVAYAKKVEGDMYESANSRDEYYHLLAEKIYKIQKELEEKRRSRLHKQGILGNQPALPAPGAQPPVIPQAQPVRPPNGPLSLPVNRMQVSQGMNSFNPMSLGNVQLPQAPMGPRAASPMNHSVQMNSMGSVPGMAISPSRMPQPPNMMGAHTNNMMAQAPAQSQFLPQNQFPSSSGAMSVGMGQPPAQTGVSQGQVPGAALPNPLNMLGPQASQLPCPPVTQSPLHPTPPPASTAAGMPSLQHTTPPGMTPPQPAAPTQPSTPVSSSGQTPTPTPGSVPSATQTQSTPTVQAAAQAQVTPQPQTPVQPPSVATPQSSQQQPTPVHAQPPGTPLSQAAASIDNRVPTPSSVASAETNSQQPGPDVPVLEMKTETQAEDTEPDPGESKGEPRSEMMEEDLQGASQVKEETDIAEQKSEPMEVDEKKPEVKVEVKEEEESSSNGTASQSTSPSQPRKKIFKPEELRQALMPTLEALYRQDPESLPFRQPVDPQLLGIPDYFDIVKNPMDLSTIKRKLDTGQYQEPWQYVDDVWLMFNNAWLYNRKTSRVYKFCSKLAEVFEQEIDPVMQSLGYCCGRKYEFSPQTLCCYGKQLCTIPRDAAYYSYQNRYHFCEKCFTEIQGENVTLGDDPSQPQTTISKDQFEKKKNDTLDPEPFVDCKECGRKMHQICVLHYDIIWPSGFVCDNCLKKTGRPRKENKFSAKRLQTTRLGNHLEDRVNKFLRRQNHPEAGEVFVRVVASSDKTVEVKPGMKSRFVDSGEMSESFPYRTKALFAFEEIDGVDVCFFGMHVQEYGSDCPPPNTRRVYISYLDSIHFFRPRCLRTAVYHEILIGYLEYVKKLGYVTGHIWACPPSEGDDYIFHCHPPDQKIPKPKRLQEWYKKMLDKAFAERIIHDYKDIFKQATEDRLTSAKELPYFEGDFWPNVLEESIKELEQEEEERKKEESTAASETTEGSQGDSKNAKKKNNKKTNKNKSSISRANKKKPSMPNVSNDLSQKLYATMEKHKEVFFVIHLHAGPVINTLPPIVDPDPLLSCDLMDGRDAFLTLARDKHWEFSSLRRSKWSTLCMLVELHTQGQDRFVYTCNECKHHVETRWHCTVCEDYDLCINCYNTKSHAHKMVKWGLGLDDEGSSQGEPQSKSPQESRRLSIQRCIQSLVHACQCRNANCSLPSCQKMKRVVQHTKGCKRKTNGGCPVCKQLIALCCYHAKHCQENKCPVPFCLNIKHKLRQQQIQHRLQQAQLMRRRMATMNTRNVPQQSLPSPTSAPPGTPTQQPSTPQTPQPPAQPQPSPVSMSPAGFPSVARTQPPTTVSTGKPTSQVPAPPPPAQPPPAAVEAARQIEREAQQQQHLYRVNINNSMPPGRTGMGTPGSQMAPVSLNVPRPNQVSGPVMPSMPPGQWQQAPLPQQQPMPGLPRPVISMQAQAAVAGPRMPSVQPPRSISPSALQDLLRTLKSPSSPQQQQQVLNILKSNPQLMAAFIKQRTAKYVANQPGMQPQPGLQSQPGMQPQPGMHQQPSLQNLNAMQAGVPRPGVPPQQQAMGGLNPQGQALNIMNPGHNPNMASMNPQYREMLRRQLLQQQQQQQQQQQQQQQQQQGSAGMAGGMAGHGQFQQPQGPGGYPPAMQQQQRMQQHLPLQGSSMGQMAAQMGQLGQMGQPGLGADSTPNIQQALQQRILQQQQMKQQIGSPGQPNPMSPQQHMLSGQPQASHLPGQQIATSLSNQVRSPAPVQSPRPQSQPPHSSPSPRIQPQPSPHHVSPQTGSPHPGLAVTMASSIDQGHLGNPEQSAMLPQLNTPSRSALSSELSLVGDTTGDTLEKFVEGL
p300/beta-catenin interaction, sequence (Q09472 1-111): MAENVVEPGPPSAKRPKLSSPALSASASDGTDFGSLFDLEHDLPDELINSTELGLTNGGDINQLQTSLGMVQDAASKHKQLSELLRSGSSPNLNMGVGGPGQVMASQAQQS

O=C1[C@H](Cc2ccc(O)cc2)N2C(=O)CCN(C(=O)NCc3ccccc3)[C@H]2CN1Cc1cccc2ccccc12 [ICG-001]
Kd (CBP; affinity chromatography approach, read-out: binding affinity to the coactivator CBP): ~1 nM
Kd (CBP; binding and isothermal calorimetry studies, read-out: binding affinity to the N-terminus of CBP): ~1 nM
effect on the p300/beta-catenin interaction [1]: without affecting the p300/beta-catenin interaction
weight and size of offspring at 6 weeks of age ([2]; ~E0.5 to ~E20): normal weight and size
effects on germ cell populations of offspring ([2]; second generation bred): no deleterious effects on germ cell populations
survivin expression (colorectal cancer cells): down-regulated survivin
cytotoxicity (colorectal cancer cells; colorectal cancer cells vs normal colonic epithelial cells): selective cytotoxicity in colorectal cancer cells, but not in normal colonic epithelial cells
tumor growth (SW620 xenograft): reducing tumor growth
CD44 expression (MDA-MB-231 cells): decreasing CD44 expression
side population (SP) and ALDH activity (MDA-MB-231 cells): dramatically decreases the side population (SP) and ALDH activity
cell surface CD24 expression (MDA-MB-231 cells; 24 h): significantly increased the expression of cell surface CD24
effect on normal endogenous hematopoiesis ([3]; mouse, in vivo): without deleterious effects to normal endogenous hematopoiesis
elimination of drug resistant leukemia stem cells ([3]; with bcr-abl antagonist): drug resistant leukemia stem cells can be eliminated
TGF-β1-induced up-regulation of α-SMA and type I collagen [4]: prevents the TGF-β1-induced up-regulation of α-SMA and type I collagen
